One experiment deals with human PHD2181-417 (Homo sapiens (Human), UniProt Q9GZT9). The experiment is described as follows: PHD2 enzyme activity assay ([14C]-succinic acid production).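 Note: reaction ran 10 min with compound in Tris pH 7.5 buffer with catalase, DTT and ascorbate, labelled succinate freed of leftover 2-oxoglutarate by DNP precipitation, then beta counted.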 In kind it is biochemical. The following applies: PHD2181-417 polypeptide, HIF-1α peptide 10 μM, [5-14C]-2-oxoglutaric acid; 30 min pre-incubation; tested 10 μM to 3 nM.
The next experiment concerns Hep-3B cells. As to the kind of experiment: Cellular assay: EPO secretion in Hep-3B cells. Type of experiment: cell-based, human. The following applies: Homo sapiens, Hep3B, 24 h, EPO secretion as percentage of control compound 7-[(4-Chloro-phenyl)-(5-methyl-isoxazol-3-ylamino)-methyl]-quinolin-8-ol, read-out: Cellular % EPO Stimulation. Further details: EPO secretion, % of control compound: dose or concentration left out as unconfirmed.

Chain of human PHD2181-417 (Q9GZT9 181-417): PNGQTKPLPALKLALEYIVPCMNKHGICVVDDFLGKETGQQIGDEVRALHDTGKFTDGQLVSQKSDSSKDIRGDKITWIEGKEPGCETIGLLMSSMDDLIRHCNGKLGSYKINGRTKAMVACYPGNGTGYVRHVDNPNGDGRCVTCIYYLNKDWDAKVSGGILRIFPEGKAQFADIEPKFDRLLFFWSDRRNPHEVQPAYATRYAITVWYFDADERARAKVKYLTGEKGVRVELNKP

Take `O=C(O)c1cnn(-c2nc3cc(NS(=O)(=O)c4ccccc4)c(Cl)cc3[nH]2)c1` [Example 138, 1-(5-Benzenesulfonylamino-6-chloro-1H-benzoimidazol-2-yl)-1H-pyrazole-4-carboxylic Acid]: at human PHD2181-417, the “Enzyme pIC50” value was 6.8. In the experiment with Hep-3B cells, the EPO secretion, % of control compound came out at 19%.
Turning to `CC(=O)Nc1cc2nc(-n3cc(C(=O)O)cn3)[nH]c2cc1Cl` [Example 139, 1-(5-Acetylamino-6-chloro-1H-benzoimidazol-2-yl)-1H-pyrazole-4-carboxylic Acid], on human PHD2181-417, the “Enzyme pIC50” value was 6.3. Further, the EPO secretion, % of control compound with Hep-3B cells stood at 24%.
Take `CCC(=O)Nc1cc2nc(-n3cc(C(=O)O)cn3)[nH]c2cc1Cl` [Example 140, 1-(6-Chloro-5-propionylamino-1H-benzoimidazol-2-yl)-1H-pyrazole-4-carboxylic Acid]: the “Enzyme pIC50” value at human PHD2181-417 is 6.4. The EPO secretion, % of control compound in the experiment with Hep-3B cells was determined as 10%.
Turning to `O=C(O)c1cnn(-c2nc3cc(NC(=O)c4ccccc4)c(Cl)cc3[nH]2)c1` [Example 141, 1-(5-Benzoylamino-6-chloro-1H-benzoimidazol-2-yl)-1H-pyrazole-4-carboxylic Acid], the “Enzyme pIC50” value at human PHD2181-417 amounted to 6.6. For the same compound, the EPO secretion, % of control compound with Hep-3B cells was found to be 33%.
The like results for `O=C(CN1CCOCC1)Nc1cc2nc(-n3cc(C(=O)O)cn3)[nH]c2cc1Cl` [Example 142, 1-[6-Chloro-5-(2-morpholin-4-yl-acetylamino)-1H-benzoimidazol-2-yl]-1H-pyrazole-4-carboxylic Acid] were, in that order, 6.4 and 17%.
Regarding `O=C(CN1CCCCC1)Nc1cc2nc(-n3cc(C(=O)O)cn3)[nH]c2cc1Cl` [Example 143, 1-[6-Chloro-5-(2-piperidin-1-yl-acetylamino)-1H-benzoimidazol-2-yl]-1H-pyrazole-4-carboxylic Acid], the “Enzyme pIC50” value at human PHD2181-417 amounted to 6.2. Also, the EPO secretion, % of control compound in the experiment with Hep-3B cells amounted to 20%.
The like results for `CN1CCN(CC(=O)Nc2cc3nc(-n4cc(C(=O)O)cn4)[nH]c3cc2Cl)CC1` [Example 144, 1-{6-Chloro-5-[2-(4-methyl-piperazin-1-yl)-acetylamino]-1H-benzoimidazol-2-yl}-1H-pyrazole-4-carboxylic Acid] were, in that order, 6.4 and 16%.
For the compound `COc1ccc(Oc2cc3nc(-n4cc(C(=O)O)cn4)[nH]c3cc2Cl)cc1` [Example 145, 1-[6-Chloro-5-(4-methoxy-phenoxy)-1H-benzoimidazol-2-yl]-1H-pyrazole-4-carboxylic Acid], the “Enzyme pIC50” value at human PHD2181-417 is given as 7.1. Further, the EPO secretion, % of control compound in the experiment on Hep-3B cells is 13.9%.
The like results for `O=C(O)c1cnn(-c2nc3cc(Oc4ccc(Cl)cc4F)c(Cl)cc3[nH]2)c1` [Example 146, 1-[6-Chloro-5-(4-chloro-2-fluoro-phenoxy)-1H-benzoimidazol-2-yl]-1H-pyrazole-4-carboxylic Acid] were, in that order, 7.2 and 49.9%.
The like results for `O=C(O)c1cnn(-c2nc3cc(Oc4ccc(OC(F)(F)F)cc4)c(Cl)cc3[nH]2)c1` [Example 147, 1-[6-Chloro-5-(4-trifluoromethoxy-phenoxy)-1H-benzoimidazol-2-yl]-1H-pyrazole-4-carboxylic Acid] were, in that order, 7.4 and 45.9%.
The like results for `O=C(O)c1cnn(-c2nc3cc(Oc4ccc(F)c(Cl)c4)c(Cl)cc3[nH]2)c1` [Example 148, 1-[6-Chloro-5-(3-chloro-4-fluoro-phenoxy)-1H-benzoimidazol-2-yl]-1H-pyrazole-4-carboxylic Acid] were, in that order, 7.1 and 38.1%.
`CCSc1cc2nc(-n3cc(C(=O)O)cn3)[nH]c2cc1C(F)(F)F` [Example 149, 1-(5-Ethylsulfanyl-6-trifluoromethyl-1H-benzoimidazol-2-yl)-1H-pyrazole-4-carboxylic Acid]: the “Enzyme pIC50” value on human PHD2181-417 was found to be 7.3. The EPO secretion, % of control compound with Hep-3B cells was found to be 57.8%.
Consider `CCSc1cc2nc(-n3cc(C(=O)O)cn3)[nH]c2cc1OC(F)(F)F` [Example 150, 1-(5-Ethylsulfanyl-6-trifluoromethoxy-1H-benzoimidazol-2-yl)-1H-pyrazole-4-carboxylic Acid], for which, on human PHD2181-417, the “Enzyme pIC50” value came out at 7.2. In the experiment on Hep-3B cells, the EPO secretion, % of control compound was 47.2%.
The like results for `CCSc1cc2nc(-n3cc(C(=O)O)cn3)[nH]c2cc1F` [Example 151, 1-(5-Ethylsulfanyl-6-fluoro-1H-benzoimidazol-2-yl)-1H-pyrazole-4-carboxylic Acid] were, in that order, 6.9 and 107%.
The like results for `CCS(=O)(=O)c1cc2nc(-n3cc(C(=O)O)cn3)[nH]c2cc1C(F)(F)F` [Example 154, 1-(5-Ethylsulfonyl-6-trifluoromethyl-1H-benzoimidazol-2-yl)-1H-pyrazole-4-carboxylic Acid] were, in that order, 7.6 and 53.8%.
The like results for `CCS(=O)(=O)c1cc2nc(-n3cc(C(=O)O)cn3)[nH]c2cc1OC(F)(F)F` [Example 155, 1-(5-Ethylsulfonyl-6-trifluoromethoxy-1H-benzoimidazol-2-yl)-1H-pyrazole-4-carboxylic Acid] were, in that order, 7.6 and 47.2%.
On to `CCS(=O)(=O)c1cc2nc(-n3cc(C(=O)O)cn3)[nH]c2cc1F` [Example 156, 1-(5-Ethylsulfonyl-6-fluoro-1H-benzoimidazol-2-yl)-1H-pyrazole-4-carboxylic Acid], for which the “Enzyme pIC50” value at human PHD2181-417 was 7.4. Also, the EPO secretion, % of control compound in the experiment on Hep-3B cells amounted to 51.9%.
The like results for `O=C(O)c1cnn(-c2nc3cc(Sc4ccccc4)c(C(F)(F)F)cc3[nH]2)c1` [Example 159, 1-(5-Phenylsulfanyl-6-trifluoromethyl-1H-benzoimidazol-2-yl)-1H-pyrazole-4-carboxylic Acid] were, in that order, 7.4 and 11%.
With `COc1ccc(Sc2cc3nc(-n4cc(C(=O)O)cn4)[nH]c3cc2C(F)(F)F)cc1` [Example 160, 1-[5-(4-Methoxy-phenylsulfanyl)-6-trifluoromethyl-1H-benzoimidazol-2-yl]-1H-pyrazole-4-carboxylic Acid], the “Enzyme pIC50” value on human PHD2181-417 turned out to be 7.5. Further, the EPO secretion, % of control compound in the experiment with Hep-3B cells amounted to 36.1%.
On to `O=C(O)c1cnn(-c2nc3cc(S(=O)(=O)c4ccccc4)c(C(F)(F)F)cc3[nH]2)c1` [Example 161, 1-(5-Benzenesulfonyl-6-trifluoromethyl-1H-benzoimidazol-2-yl)-1H-pyrazole-4-carboxylic Acid], for which the “Enzyme pIC50” value at human PHD2181-417 is 7.6. For the same compound, in the experiment with Hep-3B cells, the EPO secretion, % of control compound amounted to 98.2%.
`COc1ccc(S(=O)(=O)c2cc3nc(-n4cc(C(=O)O)cn4)[nH]c3cc2C(F)(F)F)cc1` [Example 162, 1-[5-(4-Methoxy-benzenesulfonyl)-6-trifluoromethyl-1H-benzoimidazol-2-yl]-1H-pyrazole-4-carboxylic Acid]: the “Enzyme pIC50” value at human PHD2181-417 stood at 7.6. Moreover, the EPO secretion, % of control compound in the experiment on Hep-3B cells was determined as 45.8%.
For `O=C(O)c1cnn(-c2nc3cc(SCc4ccc(Cl)cc4)c(Cl)cc3[nH]2)c1` [Example 163, 1-[6-Chloro-5-(4-chloro-benzylsulfanyl)-1H-benzoimidazol-2-yl]-1H-pyrazole-4-carboxylic Acid], the “Enzyme pIC50” value at human PHD2181-417 came out at 6.5. The EPO secretion, % of control compound with Hep-3B cells is 37%.
The like results for `O=C(O)c1cnn(-c2nc3cc(SCc4cccc(Cl)c4)c(Cl)cc3[nH]2)c1` [Example 164, 1-[6-Chloro-5-(3-chloro-benzylsulfanyl)-1H-benzoimidazol-2-yl]-1H-pyrazole-4-carboxylic Acid] were, in that order, 6.6 and 27.4%.
As to `O=C(O)c1cnn(-c2nc3cc(SCC4CCCCC4)c(Cl)cc3[nH]2)c1` [Example 165, 1-(6-Chloro-5-cyclohexylmethylsulfanyl-1H-benzoimidazol-2-yl)-1H-pyrazole-4-carboxylic Acid], the “Enzyme pIC50” value on human PHD2181-417 was found to be 6.9. Further, in the experiment with Hep-3B cells, the EPO secretion, % of control compound amounted to 27.3%.
In the case of `O=C(O)c1cnn(-c2nc3cc(SCCN4CCOCC4)c(Cl)cc3[nH]2)c1` [Example 166, 1-[6-Chloro-5-(2-morpholin-4-yl-ethylsulfanyl)-1H-benzoimidazol-2-yl]-1H-pyrazole-4-carboxylic Acid], the “Enzyme pIC50” value at human PHD2181-417 was found to be 7. In addition, the EPO secretion, % of control compound with Hep-3B cells stood at 15.1%.
The like results for `O=C(O)c1cnn(-c2nc3cc(SCc4ccc(Cl)c(Cl)c4)c(Cl)cc3[nH]2)c1` [Example 167, 1-[6-Chloro-5-(3,4-dichloro-benzylsulfanyl)-1H-benzoimidazol-2-yl]-1H-pyrazole-4-carboxylic Acid] were, in that order, 6.4 and 25.8%.
With `O=C(O)c1cnn(-c2nc3cc(SCc4c(Cl)cccc4Cl)c(Cl)cc3[nH]2)c1` [Example 168, 1-[6-Chloro-5-(2,6-dichloro-benzylsulfanyl)-1H-benzoimidazol-2-yl]-1H-pyrazole-4-carboxylic Acid], on human PHD2181-417, the “Enzyme pIC50” value was determined as 7.3. In the experiment with Hep-3B cells, the EPO secretion, % of control compound came out at 50.1%.
With `O=C(O)c1cnn(-c2nc3cc(S(=O)(=O)Cc4ccc(Cl)cc4)c(Cl)cc3[nH]2)c1` [Example 173, 1-[6-Chloro-5-(4-chloro-phenylmethanesulfonyl)-1H-benzoimidazol-2-yl]-1H-pyrazole-4-carboxylic Acid], the “Enzyme pIC50” value at human PHD2181-417 amounted to 7.8. For the same compound, the EPO secretion, % of control compound in the experiment with Hep-3B cells was 60.4%.
On to `O=C(O)c1cnn(-c2nc3cc(S(=O)(=O)Cc4cccc(Cl)c4)c(Cl)cc3[nH]2)c1` [Example 174, 1-[6-Chloro-5-(3-chloro-phenylmethanesulfonyl)-1H-benzoimidazol-2-yl]-1H-pyrazole-4-carboxylic Acid], for which, on human PHD2181-417, the “Enzyme pIC50” value is on record as 7.6. The EPO secretion, % of control compound in the experiment on Hep-3B cells is 40.9%.

These data come from patent US10851083B2, “Benzoimidazoles as prolyl hydroxylase inhibitors” (Janssen Pharmaceutica NV, priority 2008, dated 2020).
